For the assay, the target named is T1, human growth hormone secretagogue receptor-1a (hGHS-R1a) (Homo sapiens, UniProt Q92847).
T1 construct: The full length hGHS-R1a was subcloned into the mammalian expression vector pcDNA 3.1; expressed in transfected cells
Nature of the assay: hGHS-R1a binding assay, (125I)ghrelin displacement on CHO-K1 cell membranes. The following applies: membranes of CHO-K1 cells expressing hGHS-R1a; 0.05 nM (125I)ghrelin; sixty minute incubation at 4° C. The source says:
A. Preparation of CHO-K1 cells expressing the human recombinant GHS receptor-1a
The cDNA for human growth hormone secretagogue receptor-1a (hGHS-R1a) was cloned by Polymerase Chain Reaction (PCR) using human brain RNA as a template (Clontech®, Palo Alto, Calif.), gene specific primers flanking the full-length coding sequence of hGHS-R1a, (S: 5′-[…]-3′ and AS: 5′-[…]-3′), and an Advantage 2 PCR Kit® (Clontech®). The PCR product was cloned into the pCR2.1 vector using an Original TA Cloning Kit® (Invitrogen®, Carlsbad, Calif.). The full length hGHS-R1a was subcloned into the mammalian expression vector pcDNA 3.1 (Invitrogen®, Carlsbad, Calif.). The plasmid was transfected into the Chinese hamster ovary cell line, CHO-K1 (American Type Culture Collection®, Rockville, Md.), by calcium phosphate method (Wigler, M et al., Cell, (1977), 11:223). Single cell clones stably expressing the hGHS-R1a were obtained by selecting transfected cells grown in cloning rings in RPMI 1640 media supplemented with 10% fetal bovine serum and 1 mM sodium pyruvate containing 0.8 mg/ml G418 (Gibco®, Grand Island, N.Y.).
B. hGHS-R1a Binding Assay:
Membranes for radioligand binding studies can be and were prepared by homogenization of the foregoing CHO-K1 cells expressing the hGHS-R1a in 20 ml of ice-cold 50 mM Tris-HCl with a Brinkman Polytron® (Westbury, N.Y.) (setting 6, 15 sec). The homogenates were washed twice by centrifugation (39,000 g/10 min) and the final pellets were re-suspended in 50 mM Tris-HCl containing 2.5 mM MgCl2 and 0.1% BSA. For the assay, aliquots (0.4 ml) were incubated with 0.05 nM (^125I)ghrelin (˜2000 Ci/mmol)(Perkin Elmer Life Sciences®, Boston, Mass.) with and without 0.05 ml of unlabeled competing test compounds of the invention. After a sixty minute incubation at 4° C., the bound (^125I)ghrelin was separated from the free by rapid filtration through GF/C filters (Brandel®, Gaithersburg, Md.) which were previously soaked in 0.5% polyethyleneimine/0.1% BSA. The filters were then washed three times with 5-ml aliquots of ice-cold 50 mM Tris-HCl and 0.1% bovine serum albumin and the bound radioactivity trapped on the filters was counted by gamma spectrometry (Wallac LKB®, Gaithersburg, Md.). Specific binding was defined as the total (^125I)ghrelin bound minus that bound in the presence of 1000 nM ghrelin

This passage reports Ki results from US8138218B2, “Growth hormone secretagogues” (Ipsen Pharma S.A.S., priority 2005, dated 2012).

T1 sequence (Q92847 whole entry): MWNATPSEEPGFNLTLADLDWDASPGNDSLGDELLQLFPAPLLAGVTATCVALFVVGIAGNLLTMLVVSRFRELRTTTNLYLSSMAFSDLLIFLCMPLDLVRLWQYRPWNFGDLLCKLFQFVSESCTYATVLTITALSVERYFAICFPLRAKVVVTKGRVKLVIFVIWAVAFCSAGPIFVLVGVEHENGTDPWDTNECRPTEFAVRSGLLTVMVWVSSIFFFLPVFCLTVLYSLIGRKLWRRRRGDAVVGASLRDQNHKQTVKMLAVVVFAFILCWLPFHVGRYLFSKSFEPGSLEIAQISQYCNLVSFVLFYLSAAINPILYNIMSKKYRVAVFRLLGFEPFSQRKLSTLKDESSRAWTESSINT

`CC(C)(C)C(=O)N[C@@H](Cc1c[nH]c2ccccc12)NC(=O)[C@@H](Cc1csc2ccccc12)NC(=O)C(C)(C)N` [#52]: the Ki worked out at 0.0651 µM.
In turn, `CC(C)(N)C(=O)N[C@H](Cc1c[nH]c2ccccc12)C(=O)N[C@H](Cc1csc2ccccc12)NC=O` [#5] registered an inhibition constant (Ki) of 0.279 µM.
`CC(=O)N[C@H](Cc1c[nH]c2ccccc12)NC(=O)[C@@H](Cc1csc2ccccc12)NC(=O)C(C)(C)N` [#12]: the Ki was found to be 0.00256 µM.
In turn, `CC(C)(N)C(=O)N[C@H](Cc1cccc2ccccc12)C(=O)N[C@H](Cc1csc2ccccc12)NC=O` [#6] displayed an inhibition constant Ki of 0.1 µM.
The value for `CC(C)(N)C(=O)N[C@H](Cc1csc2ccccc12)C(=O)N[C@H](Cc1c[nH]c2ccccc12)NC=O` [#1, Aib-D-Bal-DgTrp-CHO] was 0.015 µM.
The value for `CC(C)(N)C(=O)N[C@H](Cc1csc2ccccc12)C(=O)N[C@H](Cc1csc2ccccc12)NC=O` [#4] was 0.0921 µM; that for `CC(C)(N)C(=O)N[C@H](Cc1ccc2ccccc2c1)C(=O)N[C@H](Cc1csc2ccccc12)NC=O` [#7] was 0.226 µM; that for `CCC(=O)N[C@@H](Cc1c[nH]c2ccccc12)NC(=O)[C@@H](Cc1csc2ccccc12)NC(=O)C(C)(C)N` [#50] was 0.0615 µM.
The value for `O=CN[C@@H](Cc1ccc2ccccc2c1)NC(=O)[C@@H](Cc1csc2ccccc12)NC(=O)C1CCNCC1` [#20] was 0.133 µM; that for `O=CN[C@@H](Cc1c[nH]c2ccccc12)NC(=O)[C@@H](Cc1csc2ccccc12)NC(=O)C1CCNCC1` [#18] was 0.12 µM; that for `CC(=O)N[C@@H](Cc1c[nH]c2ccccc12)NC(=O)[C@@H](Cc1csc2ccccc12)NC(=O)C(C)(C)N` [#11, Aib-D-Bal-DgTrp-C(O)CH3] was 0.0382 µM.
`CC(C)(N)C(=O)N[C@H](Cc1csc2ccccc12)C(=O)N[C@@H](Cc1c[nH]c2ccccc12)OC(=O)C(F)(F)F` [#73] gave a Ki of 0.093 µM.
The value for `CC(C)C(=O)N[C@@H](Cc1c[nH]c2ccccc12)NC(=O)[C@@H](Cc1csc2ccccc12)NC(=O)C(C)(C)N` [#51] was 0.0202 µM; that for `CC(C)(N)C(=O)N[C@H](Cc1cccc2ccccc12)C(=O)N[C@H](Cc1c[nH]c2ccccc12)NC=O` [#65] was 0.0168 µM; that for `CC(C)(N)C(=O)N[C@H](Cc1csc2ccccc12)C(=O)N[C@H](Cc1cccc2ccccc12)NC=O` [#2] was 0.236 µM.

A word on the Ki: it is the dissociation constant of the complex between target and ligand, obtained from inhibition or displacement.
